Laboratory results published in patent publication US10689377B2 (Mirati Therapeutics, Inc., priority 2017, dated 2020).

Molecular target: KRas G12C (Homo sapiens, UniProt P01116, G12C)
Test: Cellular inhibition of KRas G12C measured by Phospho-ERK in NCI-H358 cells
Format: cell-based
Details: pERK(Thr202/Tyr204) normalized with GAPDH, NCI-H358 cells, 3 hours; read-out: IC50
Method: Cells were plated in poly-D-Lysine coated 96-well plates at a concentration of 50,000 cells/well and allowed to attach for 8-12 hours. Diluted compounds were then added at a final concentration of 0.5% DMSO. After 3 hours, the medium was removed, 150 μL of 4% formaldehyde was added and the plates were incubated for 20 minutes. The plates were washed with PBS, and permeabilized using 150 μL of ice cold 100% methanol for 10 minutes. Non-specific antibody binding to the plates was blocked using 100 μL Licor Blocking Buffer (Li-Cor Biotechnology, Lincoln Nebr.) for 1 hour at room temperature. Positive control samples and samples lacking cells were parallel processed with test samples as standards.
The amount Phospho-ERK was determined using an antibody specific for the phosphorylated form of ERK and compared to the amount of GAPDH. […] The plates were incubated for 2 hours at room temperature. The plates were washed with PBS+0.05% Tween 20.
Secondary antibodies used to visualize primary antibodies were added as follows: Anti-rabbit-680 diluted 1:1000 and Anti-mouse-800 diluted 1:1000 in Licor Block+0.05% Tween 20 and incubated for 1 hour at room temperature. The plates were washed with PBS+0.05% Tween 20. A 100 μL aliquot of PBS was added to each well and the plates were read on a LICOR AERIUS plate reader.
The pERK(Thr202/Tyr204) signal was normalized with the GAPDH signal and percent of DMSO control values were calculated. IC50 values were generated using a 4 parameter fit of the dose response curve. Key: “A”≥0.0001-≤1 μM; “B”>1 μM and ND=not determined.

Sequence of KRas G12C (P01116 1-188 isoform P01116-2 G12C): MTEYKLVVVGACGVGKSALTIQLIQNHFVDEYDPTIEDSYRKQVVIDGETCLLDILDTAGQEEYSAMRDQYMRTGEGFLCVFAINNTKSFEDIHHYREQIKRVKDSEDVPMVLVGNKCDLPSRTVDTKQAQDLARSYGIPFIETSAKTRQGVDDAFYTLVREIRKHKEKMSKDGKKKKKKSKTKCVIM

Question: Which IC50 does the source give for C=CC(=O)N1CCN(c2nc(OCCN(C)C)nc3c2CCN(c2cc(O)cc4ccccc24)C3)CC1C(=O)N(C)C (stereo not shown) [Example 51, 1-acryloyl-4-(2-(2-(dimethylamino)ethoxy)-7-(3-hydroxynaphthalen-1-yl)-5,6,7,8-tetrahydropyrido[3,4-d]pyrimidin-4-yl)-N,N-dimethylpiperazine-2-carboxamide] here?
Answer: > 1000 nM

Question: With C=CC(=O)N1CCN(c2nc(OCCN3CCCCC3)nc3c2CCN(c2cc(O)cc4ccccc24)C3)CC1 [Example 52, 1-[4-[7-(3-hydroxy-1-naphthyl)-2-[2-(1-piperidyl)ethoxy]-6,8-dihydro-5H-pyrido[3,4-d]pyrimidin-4-yl]piperazin-1-yl]prop-2-en-1-one] as the compound, how does the IC50 read?
Answer: 0.1 to 1000 nM

Question: With C=CC(=O)N1CCN(c2nc(OCCN(C)C)nc3c2CCN(c2cc(O)cc4ccccc24)C3)C(CO)C1 (stereo not shown) [Example 53, 1-(4-(2-(2-(dimethylamino)ethoxy)-7-(3-hydroxynaphthalen-1-yl)-5,6,7,8-tetrahydropyrido[3,4-d]pyrimidin-4-yl)-3-(hydroxymethyl)piperazin-1-yl)prop-2-en-1-one] as the compound, how does the IC50 read?
Answer: > 1000 nM

Question: Which IC50 does the source give for C=CC(=O)N1CCN(c2ncnc3c2CCN(c2nc(N)cc4ccccc24)C3)CC1 [Example 54, 1-[4-[7-(3-amino-1-isoquinolyl)-6,8-dihydro-5H-pyrido[3,4-d]pyrimidin-4-yl]piperazin-1-yl]prop-2-en-1-one] here?
Answer: > 1000 nM

Question: For C=CC(=O)N1CCN(c2nc(OCC(CO)N(C)C)nc3c2CCN(c2cc(O)cc4ccccc24)C3)CC1 (stereo not shown) [Example 55, 1-(4-(2-(2-(dimethylamino)-3-hydroxypropoxy)-7-(3-hydroxynaphthalen-1-yl)-5,6,7,8-tetrahydropyrido[3,4-d]pyrimidin-4-yl)piperazin-1-yl)prop-2-en-1-one], which IC50 is on record?
Answer: 0.1 to 1000 nM

Question: Which IC50 does the source give for C=CC(=O)N1CCN(c2nc(O[C@H](C)CN3CCOCC3)nc3c2CCN(c2cc(O)cc4ccccc24)C3)CC1 [Example 56, (R)-1-(4-(7-(3-hydroxynaphthalen-1-yl)-2-((1-morpholinopropan-2-yl)oxy)-5,6,7,8-tetrahydropyrido[3,4-d]pyrimidin-4-yl)piperazin-1-yl)prop-2-en-1-one] here?
Answer: 0.1 to 1000 nM

Question: How did the IC50 turn out when C=CC(=O)N1CCN(c2nc(OC[C@@H]3CCC(=O)N3)nc3c2CCN(c2cc(O)cc4ccccc24)C3)CC1 [Example 57, (S)-5-(((4-(4-acryloylpiperazin-1-yl)-7-(3-hydroxynaphthalen-1-yl)-5,6,7,8-tetrahydropyrido[3,4-d]pyrimidin-2-yl)oxy)methyl)pyrrolidin-2-one] was run?
Answer: > 1000 nM

Question: How did the IC50 turn out when C=CC(=O)N1CCN(c2nc(OC[C@H]3CCC(=O)N3)nc3c2CCN(c2cc(O)cc4ccccc24)C3)CC1 [Example 58, (R)-5-(((4-(4-acryloylpiperazin-1-yl)-7-(3-hydroxynaphthalen-1-yl)-5,6,7,8-tetrahydropyrido[3,4-d]pyrimidin-2-yl)oxy)methyl)pyrrolidin-2-one] was run?
Answer: > 1000 nM

Question: With C=CC(=O)N1CCN(c2nc(OCCNC(C)=O)nc3c2CCN(c2cc(O)cc4ccccc24)C3)CC1 [Example 59, N-(2-((4-(4-acryloylpiperazin-1-yl)-7-(3-hydroxynaphthalen-1-yl)-5,6,7,8-tetrahydropyrido[3,4-d]pyrimidin-2-yl)oxy)ethyl)acetamide] as the compound, how does the IC50 read?
Answer: > 1000 nM

Question: How did the IC50 turn out when C=CC(=O)N1CCN(c2nc(O[C@H](CC)CN(C)C)nc3c2CCN(c2cc(O)cc4ccccc24)C3)CC1 [Example 60, (R)-1-(4-(2-((1-(dimethylamino)butan-2-yl)oxy)-7-(3-hydroxynaphthalen-1-yl)-5,6,7,8-tetrahydropyrido[3,4-d]pyrimidin-4-yl)piperazin-1-yl)prop-2-en-1-one] was run?
Answer: > 1000 nM

Question: How did the IC50 turn out when C=CC(=O)N1CCN(c2nc(O[C@H](C)CN3CC[C@@H](OC)C3)nc3c2CCN(c2cc(O)cc4ccccc24)C3)CC1 [Example 63, 1-(4-(7-(3-hydroxynaphthalen-1-yl)-2-(((R)-1-((R)-3-methoxypyrrolidin-1-yl)propan-2-yl)oxy)-5,6,7,8-tetrahydropyrido[3,4-d]pyrimidin-4-yl)piperazin-1-yl)prop-2-en-1-one] was run?
Answer: > 1000 nM

Question: With C=CC(=O)N1CCN(c2nc(O[C@H](C)CN3CC[C@H](OC)C3)nc3c2CCN(c2cc(O)cc4ccccc24)C3)CC1 [Example 64, 1-(4-(7-(3-hydroxynaphthalen-1-yl)-2-(((R)-1-((S)-3-methoxypyrrolidin-1-yl)propan-2-yl)oxy)-5,6,7,8-tetrahydropyrido[3,4-d]pyrimidin-4-yl)piperazin-1-yl)prop-2-en-1-one] as the compound, how does the IC50 read?
Answer: 0.1 to 1000 nM

Question: Which IC50 does the source give for C=CC(=O)N1CCN(c2nc(O[C@H](C)CN3CC[C@H](O)C3)nc3c2CCN(c2cc(O)cc4ccccc24)C3)CC1 [Example 65, 1-(4-(7-(3-hydroxynaphthalen-1-yl)-2-(((R)-1-((S)-3-hydroxypyrrolidin-1-yl)propan-2-yl)oxy)-5,6,7,8-tetrahydropyrido[3,4-d]pyrimidin-4-yl)piperazin-1-yl)prop-2-en-1-one] here?
Answer: > 1000 nM

Question: C=CC(=O)N1CCN(c2nc(O[C@H]3CCCN(C)C3)nc3c2CCN(c2cc(O)cc4ccccc24)C3)CC1 [Example 66, (S)-1-(4-(7-(3-hydroxynaphthalen-1-yl)-2-((1-methylpiperidin-3-yl)oxy)-5,6,7,8-tetrahydropyrido[3,4-d]pyrimidin-4-yl)piperazin-1-yl)prop-2-en-1-one] was tested. Which IC50 did it give?
Answer: > 1000 nM

Question: Which IC50 does the source give for C=CC(=O)N1CCN(c2nc(O[C@@H]3CCCN(C)C3)nc3c2CCN(c2cc(O)cc4ccccc24)C3)CC1 [Example 67, (R)-1-(4-(7-(3-hydroxynaphthalen-1-yl)-2-((1-methylpiperidin-3-yl)oxy)-5,6,7,8-tetrahydropyrido[3,4-d]pyrimidin-4-yl)piperazin-1-yl)prop-2-en-1-one] here?
Answer: 0.1 to 1000 nM

Question: For C=CC(=O)N1CCN(c2nc(O[C@H](C)CN(C)C)nc3c2CCN(c2cccc4ccccc24)C3)CC1 [Example 68, (R)-1-(4-(2-((1-(dimethylamino)propan-2-yl)oxy)-7-(naphthalen-1-yl)-5,6,7,8-tetrahydropyrido[3,4-d]pyrimidin-4-yl)piperazin-1-yl)prop-2-en-1-one], which IC50 is on record?
Answer: > 1000 nM

Question: Which IC50 does the source give for C=CC(=O)N1CCN(c2ncnc3c2CCN(c2cncc4ccccc24)C3)CC1 [Example 69, 1-(4-(7-(isoquinolin-4-yl)-5,6,7,8-tetrahydropyrido[3,4-d]pyrimidin-4-yl)piperazin-1-yl)prop-2-en-1-one] here?
Answer: > 1000 nM

Question: How did the IC50 turn out when C=CC(=O)N1CCN(c2nc(OC(C)CNC)nc3c2CCN(c2cc(O)cc4ccccc24)C3)CC1 (stereo not shown) [Example 70, 1-(4-(7-(3-hydroxynaphthalen-1-yl)-2-((1-(methylamino)propan-2-yl)oxy)-5,6,7,8-tetrahydropyrido[3,4-d]pyrimidin-4-yl)piperazin-1-yl)prop-2-en-1-one] was run?
Answer: > 1000 nM

Question: How did the IC50 turn out when C=CC(=O)N1CCN(c2ncnc3c2CCN(C(CO)c2ccccc2)C3)CC1 (stereo not shown) [Example 71, 1-(4-(7-(2-hydroxy-1-phenylethyl)-5,6,7,8-tetrahydropyrido[3,4-d]pyrimidin-4-yl)piperazin-1-yl)prop-2-en-1-one] was run?
Answer: > 1000 nM

Question: How did the IC50 turn out when C=CC(=O)N1CCN(c2nc(OCC3CCCN(C)C3)nc3c2CCN(c2cc(O)cc4ccccc24)C3)CC1 (stereo not shown) [Example 72] was run?
Answer: 0.1 to 1000 nM

Question: Which IC50 does the source give for C=CC(=O)N1CCN(c2nc(OCC(C)N(C)C)nc3c2CCN(c2cc(O)cc4ccccc24)C3)CC1 (stereo not shown) [Example 73, 1-(4-(2-(2-(dimethylamino)propoxy)-7-(3-hydroxynaphthalen-1-yl)-5,6,7,8-tetrahydropyrido[3,4-d]pyrimidin-4-yl)piperazin-1-yl)prop-2-en-1-one] here?
Answer: > 1000 nM

Question: With C=CC(=O)N1CCN(c2nc(OCCCN3CCOCC3)nc3c2CCN(c2cc(O)cc4ccccc24)C3)CC1 [Example 74, 1-(4-(7-(3-hydroxynaphthalen-1-yl)-2-(3-morpholinopropoxy)-5,6,7,8-tetrahydropyrido[3,4-d]pyrimidin-4-yl)piperazin-1-yl)prop-2-en-1-one] as the compound, how does the IC50 read?
Answer: 0.1 to 1000 nM

Question: How did the IC50 turn out when C=CC(=O)N1CCN(c2nc(O[C@H](C)CN3CCCCC3)nc3c2CCN(c2cc(O)cc4ccccc24)C3)CC1 [Example 75, (R)-1-(4-(7-(3-hydroxynaphthalen-1-yl)-2-((1-(piperidin-1-yl)propan-2-yl)oxy)-5,6,7,8-tetrahydropyrido[3,4-d]pyrimidin-4-yl)piperazin-1-yl)prop-2-en-1-one] was run?
Answer: 0.1 to 1000 nM

Question: With C=CC(=O)N1CCN(c2nc(O[C@H](C)CN(C)C)nc3c2CCN(c2cc(O)cc(Cl)c2C(C)C)C3)CC1 [Example 76, (R)-1-(4-(7-(3-chloro-5-hydroxy-2-isopropylphenyl)-2-((1-(dimethylamino)propan-2-yl)oxy)-5,6,7,8-tetrahydropyrido[3,4-d]pyrimidin-4-yl)piperazin-1-yl)prop-2-en-1-one] as the compound, how does the IC50 read?
Answer: > 1000 nM

Question: C=CC(=O)N1CCN(c2nc(OCCN3C[C@@H]4CC[C@H]3C4)nc3c2CCN(c2cc(O)cc4ccccc24)C3)CC1 [Example 77, 1-(4-(2-(2-((1S,4R)-2-azabicyclo[2.2.1]heptan-2-yl)ethoxy)-7-(3-hydroxynaphthalen-1-yl)-5,6,7,8-tetrahydropyrido[3,4-d]pyrimidin-4-yl)piperazin-1-yl)prop-2-en-1-one] was tested. Which IC50 did it give?
Answer: 0.1 to 1000 nM
